Test results: ChEMBL document CHEMBL1151556, “Design and synthesis of new hypocholesterolemic organosilanes with antioxidant properties” (Bioorg Med Chem Lett, 1996)

Key:
[1] = tested on: Rattus norvegicus; experiment: Compound was evaluated in vivo for inhibition of cholesterol synthesis in rats upon oral administration.; type: functional
[2] = tested on: HUVEC; experiment: (§1) Compound was evaluated for the inhibition of HUVEC-induced LDL oxidation; type: functional, cell-based; details: Homo sapiens
[3] = biological target: Squalene monooxygenase (Sus scrofa); experiment: Compound was evaluated for the inhibition of pig liver microsomal squalene epoxidase.
[4] = species: Homo sapiens; experiment: Compound was evaluated for the inhibition of human LDL oxidation mediated by copper(II).; type: functional
[5] = tested on: HepG2; experiment: In vitro inhibition of cholesterol synthesis in HepG2 cells.; type: functional, cell-based; details: Homo sapiens
[6] = species: Homo sapiens; experiment: as §1; type: functional, organism-based

For CCN(C/C=C/C#CC(C)(C)C)Cc1cccc(OC[Si](C)(C)c2ccccc2C)c1, the ED50 [1] was 3.2 mg/kg, the IC50 [2] was 50 µM and the IC50 [3] was 0.03 µM. For the same compound, the IC50 [4] was greater than 50 µM and the IC50 [5] was 0.12 µM.
Work on CC(C)(CNc1ccccc1)c1ccccc1 yielded an IC50 ([4]; Homo sapiens) of 100 µM.
For CCN(C[Si](C)(C)c1ccccc1)c1ccccc1, the IC50 ([4]; Homo sapiens) was 15 µM.
COc1ccc(NC[Si](C)(C)c2ccccc2)cc1 showed an IC50 ([4]; Homo sapiens) of 3 µM.
For CCN(C[Si](C)(C)c1ccccc1)c1ccc(C(F)(F)F)cc1, the IC50 ([4]; Homo sapiens) was 100 µM.
CCN(C[Si](C)(C)c1ccc(C(F)(F)F)cc1)c1ccccc1 was tested, and the IC50 ([4]; Homo sapiens) was 20 µM.
Work on C[Si](C)(CNc1ccccc1)c1ccccc1 yielded an IC50 ([4]; Homo sapiens) of 7.8 µM.
CCN(C/C=C/C#CC(C)(C)C)Cc1cccc(NC[Si](C)(C)c2ccccc2C)c1 showed an ED50 [1] of 10 mg/kg, an IC50 [2] of 7 µM and an IC50 [4] of 20 µM. The IC50 [5] was 0.2 µM.
CC(C)(Sc1cc(C(C)(C)C)c(O)c(C(C)(C)C)c1)Sc1cc(C(C)(C)C)c(O)c(C(C)(C)C)c1 [PROBUCOL] gave an IC50 ([4]; Homo sapiens) of 5.3 µM.
VITAMIN E showed an IC50 [6] of 13.6 µM and an IC50 [4] of 10 µM.
